What was measured:
Assay in all cases: DiscoverX KinomeScreen kinase selectivity competition binding assay
[1] = target: T1, panel of ninety-seven kinases (Homo sapiens, UniProt Q8NI60); settings: CABC1; read-out: % Ctrl @ 3 μM
T1 construct: purchased DiscoverX; host or cells: T7 phage in E. coli (BL21-derived) for most kinases; HEK-293 for the rest
How it was run: (§1)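 Site-directed competition binding: kinase (T7 phage-tagged or HEK-293-expressed, DNA-tagged) captured on immobilized biotinylated ligand beads, with compound at 3000 nM. Bound kinase eluted and quantified by qPCR. Reported as % Ctrl, with DMSO as 100% and control compound as 0%.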

[2] = target: T2, panel of ninety-seven kinases (Homo sapiens, UniProt P04049); settings: RAF1; read-out: % Ctrl @ 3 μM
T2 construct: purchased DiscoverX; host or cells: T7 phage in E. coli (BL21-derived) for most kinases; HEK-293 for the rest
How it was run: as §1

[3] = target: T3, panel of ninety-seven kinases (Homo sapiens, UniProt P11309); settings: PIM1; read-out: % Ctrl @ 3 μM
T3 construct: purchased DiscoverX; host or cells: T7 phage in E. coli (BL21-derived) for most kinases; HEK-293 for the rest
How it was run: as §1

[4] = target: T4, panel of ninety-seven kinases (Homo sapiens, UniProt Q9BWU1); settings: CDK19; read-out: % Ctrl @ 3 μM
T4 construct: purchased DiscoverX; host or cells: T7 phage in E. coli (BL21-derived) for most kinases; HEK-293 for the rest
How it was run: as §1

[5] = target: T5, panel of ninety-seven kinases (Homo sapiens, UniProt Q9P1W9); settings: PIM2; read-out: % Ctrl @ 3 μM
T5 construct: purchased DiscoverX; host or cells: T7 phage in E. coli (BL21-derived) for most kinases; HEK-293 for the rest
How it was run: as §1

[6] = target: T6, panel of ninety-seven kinases (Homo sapiens, UniProt P30530); settings: AXL; read-out: % Ctrl @ 3 μM
T6 construct: purchased DiscoverX; host or cells: T7 phage in E. coli (BL21-derived) for most kinases; HEK-293 for the rest
How it was run: as §1

[7] = target: T7, panel of ninety-seven kinases (Homo sapiens, UniProt Q9UPE1); settings: SRPK3; read-out: % Ctrl @ 3 μM
T7 construct: purchased DiscoverX; host or cells: T7 phage in E. coli (BL21-derived) for most kinases; HEK-293 for the rest
How it was run: as §1

[8] = target: T8, panel of ninety-seven kinases (Homo sapiens, UniProt P29597); settings: TYK2; read-out: % Ctrl @ 3 μM
T8 construct: purchased DiscoverX; host or cells: T7 phage in E. coli (BL21-derived) for most kinases; HEK-293 for the rest
How it was run: as §1

[9] = target: T9, panel of ninety-seven kinases (Homo sapiens, UniProt P35968); settings: KDR; read-out: % Ctrl @ 3 μM
T9 construct: purchased DiscoverX; host or cells: T7 phage in E. coli (BL21-derived) for most kinases; HEK-293 for the rest
How it was run: as §1

[10] = target: T10, panel of ninety-seven kinases (Homo sapiens, UniProt Q9UM73); settings: ALK; read-out: % Ctrl @ 3 μM
T10 construct: purchased DiscoverX; host or cells: T7 phage in E. coli (BL21-derived) for most kinases; HEK-293 for the rest
How it was run: as §1

[11] = target: T11, panel of ninety-seven kinases (Homo sapiens, UniProt Q06187); settings: BTK; read-out: % Ctrl @ 3 μM
T11 construct: purchased DiscoverX; host or cells: T7 phage in E. coli (BL21-derived) for most kinases; HEK-293 for the rest
How it was run: as §1

[12] = target: T12, panel of ninety-seven kinases (Homo sapiens, UniProt P51812); settings: RPS6KA3; read-out: % Ctrl @ 3 μM
T12 construct: purchased DiscoverX; host or cells: T7 phage in E. coli (BL21-derived) for most kinases; HEK-293 for the rest
How it was run: as §1

[13] = target: T13, panel of ninety-seven kinases (Homo sapiens, UniProt P36896); settings: ACVR1B; read-out: % Ctrl @ 3 μM
T13 construct: purchased DiscoverX; host or cells: T7 phage in E. coli (BL21-derived) for most kinases; HEK-293 for the rest
How it was run: as §1

[14] = target: T14, panel of ninety-seven kinases (Homo sapiens, UniProt P78368); settings: CSNK1G2; read-out: % Ctrl @ 3 μM
T14 construct: purchased DiscoverX; host or cells: T7 phage in E. coli (BL21-derived) for most kinases; HEK-293 for the rest
How it was run: as §1

[15] = target: T15, panel of ninety-seven kinases (Homo sapiens, UniProt P50750); settings: CDK9; read-out: % Ctrl @ 3 μM
T15 construct: purchased DiscoverX; host or cells: T7 phage in E. coli (BL21-derived) for most kinases; HEK-293 for the rest
How it was run: as §1

[16] = target: T16, panel of ninety-seven kinases (Homo sapiens, UniProt P04626); settings: ERBB2; read-out: % Ctrl @ 3 μM
T16 construct: purchased DiscoverX; host or cells: T7 phage in E. coli (BL21-derived) for most kinases; HEK-293 for the rest
How it was run: as §1

[17] = target: T17, panel of ninety-seven kinases (Homo sapiens, UniProt P12931); settings: SRC; read-out: % Ctrl @ 3 μM
T17 construct: purchased DiscoverX; host or cells: T7 phage in E. coli (BL21-derived) for most kinases; HEK-293 for the rest
How it was run: as §1

[18] = target: T18, panel of ninety-seven kinases (Homo sapiens, UniProt P43403); settings: ZAP70; read-out: % Ctrl @ 3 μM
T18 construct: purchased DiscoverX; host or cells: T7 phage in E. coli (BL21-derived) for most kinases; HEK-293 for the rest
How it was run: as §1

[19] = target: T19, panel of ninety-seven kinases (Homo sapiens, UniProt Q15303); settings: ERBB4; read-out: % Ctrl @ 3 μM
T19 construct: purchased DiscoverX; host or cells: T7 phage in E. coli (BL21-derived) for most kinases; HEK-293 for the rest
How it was run: as §1

[20] = target: T20, panel of ninety-seven kinases (Homo sapiens, UniProt O75116); settings: ROCK2; read-out: % Ctrl @ 3 μM
T20 construct: purchased DiscoverX; host or cells: T7 phage in E. coli (BL21-derived) for most kinases; HEK-293 for the rest
How it was run: as §1

[21] = target: T21, panel of ninety-seven kinases (Homo sapiens, UniProt Q86V86); settings: PIM3; read-out: % Ctrl @ 3 μM
T21 construct: purchased DiscoverX; host or cells: T7 phage in E. coli (BL21-derived) for most kinases; HEK-293 for the rest
How it was run: as §1

percent of control kinase binding to immobilized ligand at 3 µM [1]: 63% | percent of control kinase binding to immobilized ligand at 3 µM [2]: 92% | percent of control kinase binding to immobilized ligand at 3 µM [3]: 99% | percent of control kinase binding to immobilized ligand at 3 µM [4]: 81% | percent of control kinase binding to immobilized ligand at 3 µM [5]: 100% | percent of control kinase binding to immobilized ligand at 3 µM [6]: 93% | percent of control kinase binding to immobilized ligand at 3 µM [7]: 71% | percent of control kinase binding to immobilized ligand at 3 µM [8]: 100% | percent of control kinase binding to immobilized ligand at 3 µM [9]: 100% | percent of control kinase binding to immobilized ligand at 3 µM [10]: 89% | percent of control kinase binding to immobilized ligand at 3 µM [11]: 94% | percent of control kinase binding to immobilized ligand at 3 µM [12]: 100% | percent of control kinase binding to immobilized ligand at 3 µM [13]: 96% | percent of control kinase binding to immobilized ligand at 3 µM [14]: 100% | percent of control kinase binding to immobilized ligand at 3 µM [15]: 97% | percent of control kinase binding to immobilized ligand at 3 µM [16]: 66% | percent of control kinase binding to immobilized ligand at 3 µM [17]: 100% | percent of control kinase binding to immobilized ligand at 3 µM [18]: 92% | percent of control kinase binding to immobilized ligand at 3 µM [19]: 99% | percent of control kinase binding to immobilized ligand at 3 µM [20]: 88% | percent of control kinase binding to immobilized ligand at 3 µM [21]: 98%
Compound: CN(C)CCNC(=O)c1ccc(-c2ccc(-c3ccc(Cl)cc3)n2-c2ccccc2C(F)(F)F)cc1 (single isomer, unassigned) [Atropisomer A-2, 4-[5-(4-chlorophenyl)-1-[2-(trifluoromethyl)phenyl]pyrrol-2-yl]-N-[2-(dimethylamino)ethyl]benzamide]
